In one experiment the test system is Phakopsora pachyrhizi. The experiment in a line: Phakopsora pachyrhizi Test on Soybean (preventive activity, greenhouse). The format is in vivo. The conditions noted are these: preventive spray on young Soybean plants, inoculated one day after treatment, rated 3, 7, 10 and 15 days after application, read-out: Efficacy (% control), disease severity compared to the untreated check. The method, boiled down:
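Preventive greenhouse test: young soybean plants sprayed with compound in 2% DMSO/acetone plus emulsified water at stated rates, inoculated one day later with 2×10^5 P. pachyrhizi conidia, held at 22-24° C and 80-90% RH. Disease severity (0-100%) rated 3, 7, 10 and 15 days after application; % control relative to untreated plants.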

A further experiment deals with Colletotrichum capsici. The experiment in a line: Colletotrichum capsici (Anthracnose): radial mycelial growth on potato dextrose agar. It is filed as cell-based. As to conditions: Colletotrichum truncatum, 168 h, 25° C., 60% relative humidity, seven days, read-out: control (radial growth compared to the untreated check).
Another experiment relates to Pyricularia Oryzae. The experiment is described as follows: microbe, parasite or virus in culture. It is filed as cell-based. The conditions noted are these: 168 h, read-out: control (radial growth compared to the untreated check).
For another experiment, the system named is Botrytis cinerea. The experiment is described as follows: Botrytis cinerea (Gray Mold): radial mycelial growth on potato dextrose agar. It is filed as cell-based. The conditions noted are these: 300 ppm, 22° C., 90% relative humidity, seven days.

Results on seven compounds are retold here after patent US20220151236A1, “NOVEL OXADIAZOLE COMPOUNDS FOR CONTROLLING OR PREVENTING PHYTOPATHOGENIC FUNGI” (PI INDUSTRIES LTD., priority 2019, published 2022).

SMILES strings stand for the structures.

`O=S(=O)(Cc1cn2cc(-c3noc(C(F)(F)F)n3)ccc2n1)c1ccccc1` [Compound 116, 3-(2-((phenylsulfonyl)methyl)imidazo[1,2-a]pyridin-6-yl)-5-(trifluoromethyl)-1,2,4-oxadiazole]: the pest or weed control at 500 ppm with Phakopsora pachyrhizi was no less than 70%. In addition, the inhibition of growth at 300 ppm with Colletotrichum capsici is no less than 70%.
On to `FC(F)(F)c1nc(-c2ccc3nc(CSc4cc(Cl)cc(Cl)c4)cn3c2)no1` [Compound 111, 3-(2-(((3,5-dichlorophenyl)thio)methyl)imidazo[1,2-a]pyridin-6-yl)-5-(trifluoromethyl)-1,2,4-oxadiazole], for which, in the experiment with Phakopsora pachyrhizi, the pest or weed control at 500 ppm is no less than 70%. In the experiment with Colletotrichum capsici, the inhibition of growth at 300 ppm was no less than 70%.
For `O=C(c1cn2cc(-c3noc(C(F)(F)F)n3)ccc2n1)N1CCC1` [Compound 69, azetidin-1-yl(6-(5-(trifluoromethyl)-1,2,4-oxadiazol-3-yl)imidazo[1,2-a]pyridin-2-yl)methanone], the pest or weed control at 500 ppm in the experiment on Phakopsora pachyrhizi is no less than 70%. Further, the inhibition of growth at 300 ppm in the experiment on Colletotrichum capsici is no less than 70%.
`CCOCc1cn2cc(-c3noc(C(F)(F)F)n3)ccc2n1` [Compound 80, 3-(2-(ethoxymethyl)imidazo[1,2-a]pyridin-6-yl)-5-(trifluoromethyl)-1,2,4-oxadiazole]: the inhibition of growth at 300 ppm in the experiment with Pyricularia Oryzae is no less than 70%. Also, the “control (radial growth compared to the untreated check)” value in the experiment with Botrytis cinerea is given as no less than 70%.
In the case of `COCCNC(=O)c1cn2cc(-c3noc(C(F)(F)F)n3)ccc2n1` [Compound 65, N-(2-methoxyethyl)-6-(5-(trifluoromethyl)-1,2,4-oxadiazol-3-yl)imidazo[1,2-a]pyridine-2-carboxamide], in the experiment on Phakopsora pachyrhizi, the pest or weed control at 500 ppm is no less than 70%. For the same compound, the inhibition of growth at 300 ppm in the experiment with Colletotrichum capsici is no less than 70%.
Take `CC(C)CSCc1cn2cc(-c3noc(C(F)(F)F)n3)ccc2n1` [Compound 112, 3-(2-((isobutylthio)methyl)imidazo[1,2-a]pyridin-6-yl)-5-(trifluoromethyl)-1,2,4-oxadiazole]: the pest or weed control at 500 ppm with Phakopsora pachyrhizi is no less than 70%. For the same compound, the inhibition of growth at 300 ppm in the experiment with Colletotrichum capsici was no less than 70%.
For the compound `COc1cccc(SCc2cn3ccc(-c4noc(C(F)(F)F)n4)cc3n2)c1` [Compound 46, 3-(2-(((3-methoxyphenyl)thio)methyl)imidazo[1,2-a]pyridin-7-yl)-5-(trifluoromethyl)-1,2,4-oxadiazole], the pest or weed control at 500 ppm with Phakopsora pachyrhizi is no less than 70%. Further, the inhibition of growth at 300 ppm in the experiment on Colletotrichum capsici was no less than 70%.
